The source of these data is US12551577B2, “7-ethyl-10-hydroxycamptothecin drug precursor with fluorescence activity, and preparation method and use thereof” (SOOCHOW UNIVERSITY, priority 2021, dated 2026).

This data set can be described thus: Solubility in chloroform by weight loss method. It counts as physicochemical. The conditions noted are these: 2 mg in 300 μL chloroform. As for the experimental part:
The weights of the two centrifuge tubes were recorded on an analytical balance, respectively. […] 300 μL of chloroform was added to the centrifuge tube, shaken, and centrifuged. […] The solubility of different compounds in chloroform was estimated by the weight loss method (where the specific operation includes pipetting the solution, and lyophilizing the remaining solid and weighing).

For `CCc1c2c(nc3ccc(O)cc13)-c1cc3c(c(=O)n1C2)COC(=O)[C@]3(O)CC` [SN38, 7-Ethyl-10-hydroxycamptothecin], the solubility in chloroform entry is recorded as “hardly soluble”.
